Data from PubChem BioAssay AID342 (DTP/NCI, 2004).
“And” between values parts separate entries of the source, which are not always exact repeats. Equal entries are not always repeated.

Test system: Swiss mice, Sarcoma 180 sc, mean tumor weight T/C
Assay: NCI In Vivo Anticancer Drug Screen. Data for tumor model Sarcoma 180 (subcutaneous) in Swiss mice
Settings: endpoint: mean tumor weight, higher = larger tumour
Summary of the method: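 Mice bearing transplanted tumors were treated with compound, and survival or tumor size was measured. Values are expressed as the treated-group measurement (T) divided by the vehicle-treated control measurement (C).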

[1] = dose: 5.0 mg/kg/injection, schedule: Q01DX007 (ip), vehicle: carboxymethylcellulose (CMC)
[2] = dose: 8.0 mg/kg/injection, schedule: Q01DX007 (ip), vehicle: carboxymethylcellulose (CMC)
[3] = dose: 12.0 mg/kg/injection, schedule: Q01DX007 (ip), vehicle: carboxymethylcellulose (CMC)

With `CCC(=O)O[C@H]1CC[C@H]2[C@@H]3CCC4=CC(=O)CC[C@]4(C)[C@H]3CC[C@]12C` the T/C (dose: 90.0 mg/kg/injection, schedule: Q01DX007 (sc), vehicle: steriod suspending solution) was 102 % of control, the T/C (dose: 125.0 mg/kg/injection, schedule: Q01DX007 (sc), vehicle: steriod suspending solution) was 82 % of control and the T/C (dose: 180.0 mg/kg/injection, schedule: Q01DX007 (sc), vehicle: steriod suspending solution) was 104 % of control. The T/C (dose: 250.0 mg/kg/injection, schedule: Q01DX007 (sc), vehicle: steriod suspending solution) was 102 % of control, the T/C (dose: 360.0 mg/kg/injection, schedule: Q01DX007 (sc), vehicle: steriod suspending solution) was 107 % of control and the T/C (dose: 500.0 mg/kg/injection, schedule: Q01DX007 (sc), vehicle: steriod suspending solution) was 60 % of control. The T/C (dose: 720.0 mg/kg/injection, schedule: Q01DX007 (sc), vehicle: steriod suspending solution) was 69 % of control and the T/C (dose: 1000.0 mg/kg/injection, schedule: Q01DX007 (sc), vehicle: steriod suspending solution) was 64 % of control.
With `CC1=CC(O)C(O)C2(C)C1CC1OC(=O)C(O)C3C(C)C(O)C4(O)OCC13C42` (stereo not given) the T/C (dose: 5.0 mg/kg/injection, schedule: Q01DX007 (sc), vehicle: olive oil, sesame oil, peanut oil) was 90 % of control, the T/C (dose: 10.0 mg/kg/injection, schedule: Q01DX007 (sc), vehicle: olive oil, sesame oil, peanut oil) was 64 % of control and the T/C (dose: 20.0 mg/kg/injection, schedule: Q01DX007 (sc), vehicle: olive oil, sesame oil, peanut oil) was 96 % of control. For the same compound, the T/C (dose: 40.0 mg/kg/injection, schedule: Q01DX007 (sc), vehicle: olive oil, sesame oil, peanut oil) was 85 % of control and 86 % of control and the T/C (dose: 135.0 mg/kg/injection, schedule: Q01DX007 (sc), vehicle: olive oil, sesame oil, peanut oil) was 83 % of control.
For `[N-]=[N+]=CC(=O)CCC(N)C(=O)O` (stereo not given), the T/C (dose: 12.5 mg/kg/injection, schedule: Q#A X014 (ip), vehicle: saline) was 45 % of control and 59 % of control, the T/C (dose: 25.0 mg/kg/injection, schedule: Q#A X014 (ip), vehicle: saline) was 6 % of control and 17 % of control and the T/C (dose: 25.0 micrograms/kg/injection, schedule: Q01DX007 (ip), vehicle: carboxymethylcellulose (CMC)) was 70 % of control. For the same compound, the T/C (dose: 50.0 micrograms/kg/injection, schedule: Q01DX007 (ip), vehicle: carboxymethylcellulose (CMC)) was 51 % of control and the T/C (dose: 100.0 micrograms/kg/injection, schedule: Q01DX007 (ip), vehicle: carboxymethylcellulose (CMC)) was 8 % of control.
`CN(C)Cc1c[nH]c2ccccc12` was tested, and the T/C (dose: 62.5 mg/kg/injection, schedule: Q01DX007 (ip), vehicle: carboxymethylcellulose (CMC)) was 69 % of control.
In the case of `CCOC(=O)C(N)Cc1ccc(N(CCCl)CCCl)cc1` (stereo not given), the T/C (dose: 1.4 mg/kg/injection, schedule: Q01DX007 (ip), vehicle: saline) is reported as 41 % of control, the T/C (dose: 2.7 mg/kg/injection, schedule: Q01DX007 (ip), vehicle: saline) is reported as 93 % of control and the T/C (dose: 4.1 mg/kg/injection, schedule: Q01DX007 (ip), vehicle: saline) is reported as 9 % of control. The T/C [1] was 90 % of control, the T/C (dose: 5.5 mg/kg/injection, schedule: Q01DX007 (ip), vehicle: saline) was 32 % of control and 49 % of control and the T/C [2] was 83 % of control. For the same compound, the T/C (dose: 8.3 mg/kg/injection, schedule: Q01DX007 (ip), vehicle: saline) was 15 % of control and 20 % of control, the T/C [3] was 59 % of control and the T/C (dose: 12.5 mg/kg/injection, schedule: Q01DX007 (ip), vehicle: saline) was 7 % of control. For the same compound, the T/C (dose: 18.0 mg/kg/injection, schedule: Q01DX007 (ip), vehicle: carboxymethylcellulose (CMC)) was 29 % of control and 42 % of control and the T/C (dose: 27.0 mg/kg/injection, schedule: Q01DX007 (ip), vehicle: carboxymethylcellulose (CMC)) was 15 % of control.
`CC(=O)Nc1c(Cl)cc2c(c1Cl)Cc1cc([N+](=O)[O-])ccc1-2` was tested, and the T/C (dose: 222.0 mg/kg/injection, schedule: Q01DX007 (ip), vehicle: saline) was 59 % of control.
In the case of `O=P(N1CCCC1)(N1CC1)N1CC1`, the T/C (dose: 1.0 mg/kg/injection, schedule: Q#A X014 (ip), vehicle: saline) is reported as 50 % of control and 54 % of control, the T/C (dose: 1.3 mg/kg/injection, schedule: Q#A X014 (ip), vehicle: carboxymethylcellulose (CMC)) is reported as 76 % of control and the T/C (dose: 1.5 mg/kg/injection, schedule: Q#A X014 (ip), vehicle: saline) is reported as 10 % of control and 22 % of control. For the same compound, the T/C (dose: 2.0 mg/kg/injection, schedule: Q#A X014 (ip), vehicle: carboxymethylcellulose (CMC)) was 66 % of control, the T/C (dose: 2.0 mg/kg/injection, schedule: Q#A X014 (ip), vehicle: saline) was 15 % of control and the T/C (dose: 3.0 mg/kg/injection, schedule: Q#A X014 (ip), vehicle: carboxymethylcellulose (CMC)) was 46 % of control. The T/C [2] was 23 % of control and the T/C [3] was 11 % of control.
With `CCOC(=O)Nc1ccc2c(c1)/C(=N\NC(N)=S)c1ccccc1-2` the T/C [1] was 86 % of control, the T/C (dose: 15.0 mg/kg/injection, schedule: Q01DX007 (ip), vehicle: carboxymethylcellulose (CMC)) was 44 % of control and the T/C (dose: 30.0 mg/kg/injection, schedule: Q01DX007 (ip), vehicle: carboxymethylcellulose (CMC)) was 55 % of control. For the same compound, the T/C (dose: 49.0 mg/kg/injection, schedule: Q01DX007 (ip), vehicle: carboxymethylcellulose (CMC)) was 85 % of control, the T/C (dose: 60.0 mg/kg/injection, schedule: Q01DX007 (ip), vehicle: carboxymethylcellulose (CMC)) was 63 % of control and the T/C (dose: 73.0 mg/kg/injection, schedule: Q01DX007 (ip), vehicle: carboxymethylcellulose (CMC)) was 63 % of control. The T/C (dose: 110.0 mg/kg/injection, schedule: Q01DX007 (ip), vehicle: carboxymethylcellulose (CMC)) was 112 % of control.
For `C=CCn1cnc2c(=S)nc[nH]c21`, the T/C (dose: 31.0 mg/kg/injection, schedule: Q01DX007 (ip), vehicle: carboxymethylcellulose (CMC)) was 86 % of control and the T/C (dose: 62.0 mg/kg/injection, schedule: Q01DX007 (ip), vehicle: carboxymethylcellulose (CMC)) was 54 % of control.
For `NC(=O)c1[nH]cnc1/N=N/N1CCCC1`, the T/C (dose: 62.5 mg/kg/injection, schedule: Q#A X014 (ip), vehicle: carboxymethylcellulose (CMC)) was 73 % of control and the T/C (dose: 125.0 mg/kg/injection, schedule: Q#A X014 (ip), vehicle: carboxymethylcellulose (CMC)) was 107 % of control.
`CC(O)C(NCNC(=O)C1=C(O)C2(O)C(=O)C3=C(O)c4c(O)cccc4C(C)(O)C3CC2C(N(C)C)C1=O)C(=O)O` (stereo not given) was tested, and the T/C (dose: 250.0 mg/kg/injection, schedule: Q#A X014 (ip), vehicle: saline) was 44 % of control and 46 % of control.
`CC1OC(OC2C(CO)OC(O[C@H]3CC[C@@]4(C)C(=CC[C@H]5[C@@H]6C[C@@H]7O[C@@]8(CC[C@H](C)CN8)[C@@H](C)[C@@H]7[C@@]6(C)CC[C@@H]54)C3)C(OC3OC(C)C(O)C(O)C3O)C2O)C(O)C(O)C1O` (stereo not given in full) was tested, and the T/C (dose: 5.0 mg/kg/injection, schedule: Q01DX007 (ip), vehicle: saline) was 51 % of control, the T/C (dose: 15.0 mg/kg/injection, schedule: Q01DX007 (ip), vehicle: saline) was 62 % of control and the T/C (dose: 20.0 mg/kg/injection, schedule: Q01DX007 (ip), vehicle: saline) was 15 % of control. The T/C (dose: 30.0 mg/kg/injection, schedule: Q01DX007 (ip), vehicle: saline) was 21 % of control and the T/C (dose: 40.0 mg/kg/injection, schedule: Q01DX007 (ip), vehicle: saline) was 16 % of control.
For `NNC(=O)NC(=O)NN`, the T/C (dose: 9.5 mg/kg/injection, schedule: Q01DX007 (ip), vehicle: carboxymethylcellulose (CMC)) was 91 % of control, the T/C (dose: 19.0 mg/kg/injection, schedule: Q01DX007 (ip), vehicle: carboxymethylcellulose (CMC)) was 124 % of control and the T/C (dose: 38.0 mg/kg/injection, schedule: Q01DX007 (ip), vehicle: carboxymethylcellulose (CMC)) was 111 % of control. For the same compound, the T/C (dose: 76.0 mg/kg/injection, schedule: Q01DX007 (ip), vehicle: carboxymethylcellulose (CMC)) was 69 % of control.
In the case of `CCSCCC(N)C(=O)O` (stereo not given), the T/C (dose: 9.37 mg/kg/injection, schedule: Q#A X014 (ip), vehicle: carboxymethylcellulose (CMC)) is reported as 80 % of control, the T/C (dose: 18.2 mg/kg/injection, schedule: Q01DX007 (ip), vehicle: carboxymethylcellulose (CMC)) is reported as 115 % of control and the T/C (dose: 18.75 mg/kg/injection, schedule: Q#A X014 (ip), vehicle: carboxymethylcellulose (CMC)) is reported as 116 % of control. For the same compound, the T/C (dose: 25.0 mg/kg/injection, schedule: Q01DX007 (ip), vehicle: carboxymethylcellulose (CMC)) was 102 % of control, the T/C (dose: 36.3 mg/kg/injection, schedule: Q01DX007 (ip), vehicle: carboxymethylcellulose (CMC)) was 98 % of control and the T/C (dose: 37.5 mg/kg/injection, schedule: Q#A X014 (ip), vehicle: carboxymethylcellulose (CMC)) was 40 % of control. The T/C (dose: 50.0 mg/kg/injection, schedule: Q01DX007 (ip), vehicle: carboxymethylcellulose (CMC)) was 80 % of control, the T/C (dose: 72.5 mg/kg/injection, schedule: Q01DX007 (ip), vehicle: carboxymethylcellulose (CMC)) was 77 % of control and the T/C (dose: 75.0 mg/kg/injection, schedule: Q#A X014 (ip), vehicle: carboxymethylcellulose (CMC)) was 36 % of control. For the same compound, the T/C (dose: 90.0 mg/kg/injection, schedule: Q01DX007 (ip), vehicle: carboxymethylcellulose (CMC)) was 106 % of control, the T/C (dose: 100.0 mg/kg/injection, schedule: Q01DX007 (ip), vehicle: carboxymethylcellulose (CMC)) was 111 % of control and the T/C (dose: 108.0 mg/kg/injection, schedule: Q01DX007 (ip), vehicle: carboxymethylcellulose (CMC)) was 98 % of control. The T/C (dose: 145.0 mg/kg/injection, schedule: Q01DX007 (ip), vehicle: carboxymethylcellulose (CMC)) was 108 % of control, the T/C (dose: 216.0 mg/kg/injection, schedule: Q01DX007 (ip), vehicle: carboxymethylcellulose (CMC)) was 107 % of control and the T/C (dose: 432.0 mg/kg/injection, schedule: Q01DX007 (ip), vehicle: carboxymethylcellulose (CMC)) was 47 % of control.
